Reference: patent US20180055032A1, “ODORS FOR PSYLLID TRAPPING, REPELLING AND CONTROL” (The Regents of the University of California, priority 2011, published 2018)

Assays:
[1] = tested on: ACP; conditions: small plot field trial, cited from earlier work
[2] = tested on: neuron 2A (rhinarial plate on flagellomere 2); experiment: single-sensillum electrophysiology, odor response of neuron 2A; type: cell-based, Diaphorina citri; conditions: Table 1; odor diluted to 1%, 50 μL in cartridge; further: key: 0, no response; +, >50 spikes/second; ++, >100 spikes/second; +++, >150 spikes/second
[3] = tested on: neuron 2B (rhinarial plate on flagellomere 2); experiment: single-sensillum electrophysiology, odor response of neuron 2B; type: cell-based, Diaphorina citri; conditions: Table 1; odor diluted to 1%, 50 μL in cartridge
[4] = tested on: neuron 2C (rhinarial plate on flagellomere 2); experiment: single-sensillum electrophysiology, odor response of neuron 2C; type: cell-based, Diaphorina citri; conditions: Table 1; odor diluted to 1%, 50 μL in cartridge
[5] = tested on: neuron 4A (rhinarial plate on flagellomere 4); experiment: single-sensillum electrophysiology, odor response of neuron 4A; type: cell-based, Diaphorina citri; conditions: Table 1; odor diluted to 1%, 50 μL in cartridge
[6] = tested on: neuron 4B (rhinarial plate on flagellomere 4); type: cell-based, Diaphorina citri; conditions: Table 1; odor diluted to 1%, 50 μL in cartridge
[7] = tested on: neuron 4C (rhinarial plate on flagellomere 4); experiment: single-sensillum electrophysiology, odor response of neuron 4C; type: cell-based, Diaphorina citri; conditions: Table 1; odor diluted to 1%, 50 μL in cartridge
[8] = tested on: neuron 6A (rhinarial plate on flagellomere 6); experiment: single-sensillum electrophysiology, odor response of neuron 6A; type: cell-based, Diaphorina citri; conditions: Table 1; odor diluted to 1%, 50 μL in cartridge
[9] = tested on: neuron 6B (rhinarial plate on flagellomere 6); experiment: single-sensillum electrophysiology, odor response of neuron 6B; type: cell-based, Diaphorina citri; conditions: Table 1; odor diluted to 1%, 50 μL in cartridge
[10] = tested on: neuron 6C (rhinarial plate on flagellomere 6); experiment: single-sensillum electrophysiology, odor response of neuron 6C; type: cell-based, Diaphorina citri; conditions: Table 1; odor diluted to 1%, 50 μL in cartridge
[11] = tested on: neuron 7A (rhinarial plate on flagellomere 7); experiment: single-sensillum electrophysiology, odor response of neuron 7A; type: cell-based, Diaphorina citri; conditions: Table 1; odor diluted to 1%, 50 μL in cartridge; further: key: 0, no response; +, >50 spikes/second; ++, >100 spikes/second; +++, >150 spikes/second
[12] = tested on: neuron 7B (rhinarial plate on flagellomere 7); type: cell-based, Diaphorina citri; conditions: Table 1; odor diluted to 1%, 50 μL in cartridge
[13] = tested on: neuron 7C (rhinarial plate on flagellomere 7); experiment: single-sensillum electrophysiology, odor response of neuron 7C; type: cell-based, Diaphorina citri; conditions: Table 1; odor diluted to 1%, 50 μL in cartridge
[14] = tested on: ACP; conditions: cited from earlier work

Structure (SMILES) | reduction in ACP densities ([1]; low psyllid density area (average 3-4 ACP/10 trees)) | duration of reduction in ACP densities [1] | odor response (frequency of action potentials during stimulus minus baseline), 2A [2] | odor response (frequency of action potentials during stimulus minus baseline), 2B [3] | odor response (frequency of action potentials during stimulus minus baseline), 2C [4] | odor response (frequency of action potentials during stimulus minus baseline), 4A [5] | odor response (frequency of action potentials during stimulus minus baseline), 4B [6] | odor response (frequency of action potentials during stimulus minus baseline), 4C [7] | odor response (frequency of action potentials during stimulus minus baseline), 6A [8] | odor response (frequency of action potentials during stimulus minus baseline), 6B [9] | odor response (frequency of action potentials during stimulus minus baseline), 6C [10] | odor response (frequency of action potentials during stimulus minus baseline), 7A [11] | odor response (frequency of action potentials during stimulus minus baseline), 7B [12] | odor response (frequency of action potentials during stimulus minus baseline), 7C [13] | ACP behavior in lab behavior assays ([14]; at lower concentration) | ACP behavior in laboratory behavioral assays ([14]; high amounts, as released by citrus plants under physical stress)
CSSC [DMDS, dimethyl disulfide] | 65% | up to three | – | – | – | – | – | – | – | – | – | – | – | – | – | –
COC(=O)c1ccccc1O [methyl salicylate] | – | – | 0 | 0 | 0 | 0 | + (+, >50 spikes/second) | 0 | 0 | + (+, >50 spikes/second) | 0 | 0 | + (+, >50 spikes/second) | 0 | attracted | repellency
